Measurements as given in PubChem BioAssay (NCI).
Where “and” joins values, the source holds several entries; their conditions need not be identical. Equal entries are not always repeated.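 Grown in 96-well plates, cells were treated for 48 hours with each compound at five concentrations. Insufficient inhibition: endpoint recorded as highest concentration tested. Here, GI50 denotes the concentration required for 50% inhibition of growth. Definition used: TGI = concentration required for complete inhibition of growth.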

Assays:
Test in all cases: growth of human tumour cells (NCI), 48 h
SNB-75 CNS = test system: SNB-75 CNS
RPMI-8226 leukemia = test system: RPMI-8226 leukemia
OVCAR-5 ovarian = test system: OVCAR-5 ovarian
ACHN renal = test system: ACHN renal
SN12C renal = test system: SN12C renal
EKVX NSCLC = test system: EKVX NSCLC
786-0 renal = test system: 786-0 renal
NCI-H226 lung = test system: NCI-H226 lung
A549 NSCLC = test system: A549 NSCLC
SK-MEL-5 melanoma = test system: SK-MEL-5 melanoma

| SMILES | TGI (SNB-75 CNS) | TGI (RPMI-8226 leukemia) | TGI (OVCAR-5 ovarian) | TGI (ACHN renal) | TGI (SN12C renal) | TGI (EKVX NSCLC) | TGI (786-0 renal) | TGI (NCI-H226 lung) | TGI (A549 NSCLC) | TGI (SK-MEL-5 melanoma) | GI50 (SNB-75 CNS) | GI50 (RPMI-8226 leukemia) | GI50 (OVCAR-5 ovarian) | GI50 (ACHN renal) | GI50 (SN12C renal) | GI50 (EKVX NSCLC) | GI50 (786-0 renal) | GI50 (NCI-H226 lung) | GI50 (A549 NSCLC) | GI50 (SK-MEL-5 melanoma) |
| --- | --- | --- | --- | --- | --- | --- | --- | --- | --- | --- | --- | --- | --- | --- | --- | --- | --- | --- | --- | --- |
| CC(=O)OC(C)(C)C1CC[C@]2(C)/C=C/C(C)C[C@@H](O)/C=C(\C)CC(O)C12 (stereo partly specified) | > 100 µM | > 100 µM | > 100 µM | > 100 µM | > 100 µM | > 100 µM | > 100 µM | > 100 µM | > 100 µM | > 100 µM |  |  |  |  |  |  |  |  |  |  |
| O=C(NCc1cn(Cc2cccc(Oc3ccccc3)c2)nn1)c1cccnc1Nc1ccc(F)cc1 | 21.3 µM | > 100 µM | > 100 µM | > 100 µM | > 100 µM | > 100 µM | > 100 µM | > 100 µM | > 100 µM | 38.8 µM | 3.81 µM | > 100 µM | > 100 µM | 11 µM | 52.6 µM | 25.3 µM | 23.2 µM | 38.6 µM | 6.11 µM | 4.48 µM |
| C[N+]1([O-])C2CCC1CC(OC(=O)C(CO)c1ccccc1)C2 (stereo unspecified) | > 100 µM | > 100 µM | > 100 µM | > 100 µM | > 100 µM | > 100 µM | > 100 µM | > 100 µM | > 100 µM | > 100 µM |  |  |  |  |  |  |  |  |  |  |
| CN(C)CCNC(=O)c1cc2c3cc(Cl)ccc3[nH]c2c2ncccc12 | 15.8 µM | 3.84 µM | 27.4 µM | 6.98 µM | 13.4 µM | 12.7 µM | 18.1 µM | 16.7 µM | 4.7 µM | 2.69 µM | 3.85 µM | 1.78 µM | 11.9 µM | 1.62 µM | 2.9 µM | 2.8 µM | 4.83 µM | 4.04 µM | 1.93 µM | 1.34 µM |
| Cc1cc(I)cc(CNCCN(C)C)c1O | > 100 µM | > 100 µM | > 100 µM | > 100 µM | > 100 µM | > 100 µM | > 100 µM | > 100 µM | > 100 µM | > 80.8 µM | 49.4 µM | 35.2 µM | > 100 µM | > 79.6 µM | > 85.6 µM | > 100 µM | > 92.2 µM | > 100 µM | 99.7 µM | 27.9 µM |
| CC(C)(C)CC(C)(C)c1ccc(OCCO)cc1 | 18.1 µg/mL | 19.5 µg/mL | 27.5 µg/mL | > 75 µg/mL | 16.7 µg/mL | 30.1 µg/mL | 33.7 µg/mL | 15.8 µg/mL | > 75 µg/mL | 7.63 µg/mL | 3.45 µg/mL | 1.9 µg/mL | 11.9 µg/mL | 6.05 µg/mL | 6.38 µg/mL | 1.34 µg/mL | 10.9 µg/mL | 2.44 µg/mL | 9.04 µg/mL | 0.89 µg/mL |
| N#CC1=C(N)Oc2c(sc3c(Br)cccc23)C1c1ccc([N+](=O)[O-])cc1 (stereo unspecified) | 8.41 µM | 6.49 µM | 16.4 µM | 13 µM | 13.1 µM | 19.4 µM | 11.9 µM | 15.6 µM | 13.5 µM | 4.45 µM | 0.0595 µM | 0.116 µM | 1.4 µM | 0.12 µM | 1 µM | 0.462 µM | 0.158 µM | 0.368 µM | 0.177 µM | 0.0652 µM |
| C/C(=N/NC(=O)c1ccccc1S(N)(=O)=O)C(CN1CCCCC1)C(C1=C(O)C2C=CC=CC2OC1=O)c1ccccc1 (stereo unspecified) | > 100 µM | 79 µM | > 100 µM | > 100 µM | > 100 µM | > 100 µM | > 100 µM | > 100 µM | > 100 µM | > 100 µM |  |  |  |  |  |  |  |  |  |  |
| Cn1cc(-c2ccc3nc(-c4ccc(CC(=O)Nc5cc(C(C)(C)C)no5)cc4)cnc3c2)cn1 | > 0.84 µM | > 3 µM | > 3 µM | > 3 µM | > 3 µM | > 3 µM | > 3 µM | > 3 µM | > 3 µM | > 3 µM | 0.0161 µM | 0.056 µM | 0.0828 µM | 0.0144 µM | 0.0268 µM | 0.143 µM | 0.0375 µM | 0.0444 µM | 0.0577 µM |  |
| Cc1c(Cl)cccc1C(=O)Nc1nc2c(s1)CN(C(=O)Nc1cccc(C(F)(F)F)c1)CC2 | 3.52 µM | > 39.2 µM | > 50 µM |  | > 50 µM | > 50 µM | > 25.3 µM | 7.65 µM | > 50 µM | 3.75 µM | 0.104 µM | 0.202 µM | 0.603 µM | 0.326 µM | 0.334 µM | 0.346 µM | 0.254 µM | 0.213 µM | 0.33 µM | 0.182 µM |
| C[C@@H]1CN2[C@H]3[C@@H]1CC[C@]31CCC(=O)O[C@]1(C)[C@H]1CC[C@H]3CCC=C3[C@@H]12 | > 30 µM | > 30 µM | > 30 µM | > 30 µM | > 30 µM | > 30 µM | > 30 µM | > 30 µM | > 30 µM | > 30 µM | > 30 µM | > 30 µM | > 30 µM | > 30 µM | > 30 µM | > 30 µM | > 30 µM | > 30 µM | > 30 µM | > 30 µM |
| COc1cc2c(c3oc(-c4ccc(O)cc4)c(O)c(=O)c13)CCC(C)(C)O2 | 0.283 µM | 0.787 µM | 0.622 µM |  | 0.884 µM |  | 0.214 µM | 2.55 µM | 0.729 µM | 0.241 µM | 0.103 µM | 0.305 µM | 0.229 µM | 0.145 µM | 0.271 µM | 0.308 µM | 0.0788 µM | 0.536 µM | 0.27 µM | 0.0908 µM |
| CS(=O)(=O)OCCN(CCOS(C)(=O)=O)c1ccc(C=Nc2ccc(-c3csc(COc4ccccc4)n3)cc2)cc1 | 11.6 µM | 67.5 µM | 12.6 µM | 2.32 µM | 18.7 µM | 16.5 µM | 4.52 µM | 18.2 µM | 32.1 µM | 23.9 µM |  |  |  |  |  |  |  |  |  |  |
| O=S(=O)(NCCCNc1cc(-c2cn(-c3ccccc3)nc2-c2cccc(O)c2)ccn1)c1ccc(C(F)(F)F)cc1 | 5.06 µM | 4.82 µM | 5.16 µM | 10.7 µM | 3.67 µM | 10.7 µM | 3.7 µM | 6.25 µM | 7.45 µM | 2.97 µM | 1.45 µM | 1.66 µM | 1.92 µM | 3.08 µM | 1.81 µM | 2.45 µM | 1.57 µM | 2.31 µM | 2.14 µM | 1.56 µM |
| NC1=C(O)c2cccc3cccc(c23)C1=O | > 100 µM | > 100 µM | > 100 µM | > 100 µM | > 100 µM | > 100 µM | > 100 µM | > 100 µM | > 100 µM | > 100 µM |  |  |  |  |  |  |  |  |  |  |
| Cc1ccc(NC(=O)c2ccc(CN3CCN(C)CC3)cc2)cc1Nc1nc(-c2cccnc2)cs1 | 28.5 µM and > 10 µM | 18.2 µM and > 10 µM | 31.1 µM and > 10 µM | 24.7 µM and > 10 µM | 36 µM and > 10 µM | 29.8 µM and > 10 µM | 11.5 µM and 7.92 µM | 29.6 µM and > 10 µM | 27.1 µM and > 10 µM | 9.32 µM | 14.8 µM and 7.43 µM | 3.19 µM and 2.31 µM | 16.6 µM and > 10 µM | 11.7 µM and 4.15 µM | 13.9 µM and > 10 µM | 13.6 µM and > 10 µM | 3.53 µM and 2.84 µM | 7.94 µM and 4.12 µM | 12.1 µM and 8.01 µM | 2.46 µM |
| O=C(O)/C=C/c1ccc(O)c(O)c1 | > 100 µM | > 100 µM | > 100 µM | > 100 µM | > 100 µM | > 100 µM | > 100 µM | > 100 µM | > 100 µM | > 100 µM |  |  |  |  |  |  |  |  |  |  |
| COC(=O)C(=O)C(C#N)c1nc2ccccc2s1 (stereo unspecified) | > 100 µM | > 100 µM | > 100 µM | > 100 µM | > 100 µM | > 100 µM | > 100 µM | > 100 µM | > 100 µM | > 100 µM |  |  |  |  |  |  |  |  |  |  |
| Sc1cccc2cccnc12 | 11.6 µM | 30.3 µM | 17.7 µM | 12.8 µM | 15.1 µM | 12.9 µM | 14.3 µM | 8.83 µM | 11.5 µM | 4.25 µM | 2.72 µM | 2.9 µM | 4.1 µM | 0.697 µM | 1.14 µM | 1.31 µM | 1.22 µM | 1.61 µM | 0.497 µM | 0.822 µM |
| O=C(CCCc1ccc(N(CCCl)CCCl)cc1)NCc1ccccc1 | 33 µM | 27.4 µM | > 100 µM | > 100 µM | > 100 µM | 91.5 µM | 23.3 µM | 47.2 µM | > 100 µM | 22.7 µM | 3.49 µM | 4.57 µM | 33.1 µM | 3.91 µM | 4.41 µM | 21.6 µM | 3.32 µM | 14.6 µM | 6.88 µM | 8.14 µM |
